Laboratory results from patent US10155802B2, “Locally-active anticoagulants and anti-inflammatory agents” (priority 2011, dated 2018).

Tested on: pooled human plasma
Test: Prothrombin time (PT, thromboplastin) clotting assay
Assay type: biochemical
Outline: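 Test compound diluted in HBS (20 mM HEPES, 150 mM NaCl, pH 7.4), mixed with pooled normal human plasma at 37 °C; APTT started with APTT reagent then CaCl2, PT with thromboplastin. APTT value is concentration giving 50% of maximum clotting delay (MCT50); PT IC50 is concentration prolonging clotting time by 50%.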

In the case of `CC[C@H](C)[C@H](N)C(=O)N[C@@H](CCCNC(=N)N)C(=O)N[C@@H](Cc1ccccc1)C(=O)N[C@H](C(=O)N[C@@H](CC(=O)O)C(=O)NCC(=O)N[C@@H](CCC(=O)O)C(=O)N[C@@H](Cc1c[nH]c2ccccc12)C(=O)N[C@H](C(=O)N[C@@H](Cc1c[nH]c2ccccc12)C(=O)N[C@@H](CC(=O)O)C(=O)N[C@@H](CC(=O)O)C(=O)N[C@@H](C)C(=O)N[C@H](C(=O)N[C@@H](CCCCN)C(=O)N[C@H](C(=O)N[C@@H](Cc1c[nH]c2ccccc12)C(=O)N[C@H](C(=O)N[C@@H](Cc1c[nH]c2ccccc12)C(=O)N[C@H](C(=O)N[C@@H](CCC(=O)O)C(=O)NCC(=O)N[C@@H](CC(=O)O)C(=O)N[C@@H](Cc1ccccc1)C(=O)N[C@@H](CCC(=O)O)C(=O)N[C@@H](CCC(=O)O)C(=O)N[C@H](C(=O)N1CCC[C@H]1C(=O)N[C@@H](CCC(=O)O)C(=O)N[C@@H](CCC(=O)O)C(=O)N[C@@H](Cc1ccc(O)cc1)C(=O)N[C@@H](CC(C)C)C(=O)N[C@@H](CCC(N)=O)C(=O)O)[C@@H](C)CC)[C@@H](C)O)[C@@H](C)O)[C@@H](C)O)[C@@H](C)O)[C@@H](C)O)[C@@H](C)O` [MH2-wZIP4], the “Plateau of prothrombin time dose response” value (37° C.) is reported as “(Plateau at >900 nM)”, the IC50 (37° C., concentration that prolongs clotting time by 50%) is reported as 1000 nM and the “anticoagulant effect in PT versus APTT assays” value (in words) is reported as “greatly-reduced anticoagulant potency in both the PT and APTT assays”.
